Reference: patent US12215140B2, “Method of stabilizing protein contained in specimen and solution for stabilizing protein contained in specimen” (EIKEN KAGAKU KABUSHIKI KAISHA, priority 2018, dated 2025)

System: hemoglobin-haptoglobin complex
Test: Stability of hemoglobin (as hemoglobin-haptoglobin complex) in samples preserved at 37° C. in preservation solution containing 1 unit/L haptoglobin, Hb measured by latex agglutination method (Examples 1 to 7)
Parameters: species or system human
Details: for Hb concentration / Recovery ratio with respect to Hb concentration after 0 days / Recovery ratio with respect to Hb after 0 days: 37° C.; for recovery ratio of hemoglobin in the sample: Feces 1, Feces 2, Feces 3
How it was run: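 Hemoglobin (~300 µg/L) in 0.5% fecal suspension, or without feces, held at 37 °C for 0–21 days in 40 mmol/L HEPES pH 6.8, 0.1% BSA, 0.1% NaN3, 1 unit/L haptoglobin, with 0–100 mmol/L phenylboronic acid ± sugars. Hb quantified by latex agglutination with anti-human Hb rabbit polyclonal; recovery (%) relative to day 0.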

[1] = Feces 1, sugar 50 mmol/L + phenylboronic acid 15 mmol/L, 0 days
[2] = Feces 1, sugar 50 mmol/L + phenylboronic acid 15 mmol/L, 7 days
[3] = Feces 1, sugar 50 mmol/L + phenylboronic acid 15 mmol/L, 14 days
[4] = Feces 1, sugar 100 mmol/L + phenylboronic acid 15 mmol/L, 0 days
[5] = Feces 1, sugar 100 mmol/L + phenylboronic acid 15 mmol/L, 0 days (Table 7)
[6] = Feces 1, sugar 100 mmol/L + phenylboronic acid 15 mmol/L, 7 days
[7] = Feces 1, sugar 100 mmol/L + phenylboronic acid 15 mmol/L, 7 days (Table 7)
[8] = Feces 1, sugar 100 mmol/L + phenylboronic acid 15 mmol/L, 14 days
[9] = Feces 1, sugar 100 mmol/L + phenylboronic acid 15 mmol/L, 14 days (Table 7)
[10] = Feces 1, sugar 100 mmol/L + phenylboronic acid 50 mmol/L, 0 days
[11] = Feces 1, sugar 100 mmol/L + phenylboronic acid 50 mmol/L, 7 days
[12] = Feces 1, sugar 100 mmol/L + phenylboronic acid 50 mmol/L, 14 days
[13] = Feces 1, sugar 100 mmol/L, no phenylboronic acid, 0 days
[14] = Feces 1, sugar 100 mmol/L, no phenylboronic acid, 7 days
[15] = Feces 1, sugar 100 mmol/L, no phenylboronic acid, 14 days
[16] = Feces 2, sugar 50 mmol/L + phenylboronic acid 15 mmol/L, 0 days
[17] = Feces 2, sugar 50 mmol/L + phenylboronic acid 15 mmol/L, 7 days
[18] = Feces 2, sugar 50 mmol/L + phenylboronic acid 15 mmol/L, 14 days
[19] = Feces 2, sugar 100 mmol/L + phenylboronic acid 15 mmol/L, 0 days
[20] = Feces 2, sugar 100 mmol/L + phenylboronic acid 15 mmol/L, 0 days (Table 7)
[21] = Feces 2, sugar 100 mmol/L + phenylboronic acid 15 mmol/L, 7 days
[22] = Feces 2, sugar 100 mmol/L + phenylboronic acid 15 mmol/L, 7 days (Table 7)
[23] = Feces 2, sugar 100 mmol/L + phenylboronic acid 15 mmol/L, 14 days
[24] = Feces 2, sugar 100 mmol/L + phenylboronic acid 15 mmol/L, 14 days (Table 7)
[25] = Feces 2, sugar 100 mmol/L + phenylboronic acid 50 mmol/L, 0 days
[26] = Feces 2, sugar 100 mmol/L + phenylboronic acid 50 mmol/L, 7 days
[27] = Feces 2, sugar 100 mmol/L + phenylboronic acid 50 mmol/L, 14 days
[28] = Feces 2, sugar 100 mmol/L, no phenylboronic acid, 0 days
[29] = Feces 2, sugar 100 mmol/L, no phenylboronic acid, 7 days
[30] = Feces 2, sugar 100 mmol/L, no phenylboronic acid, 14 days
[31] = Feces 3, sugar 50 mmol/L + phenylboronic acid 15 mmol/L, 0 days
[32] = Feces 3, sugar 50 mmol/L + phenylboronic acid 15 mmol/L, 7 days
[33] = Feces 3, sugar 50 mmol/L + phenylboronic acid 15 mmol/L, 14 days
[34] = Feces 3, sugar 100 mmol/L + phenylboronic acid 15 mmol/L, 0 days
[35] = Feces 3, sugar 100 mmol/L + phenylboronic acid 15 mmol/L, 0 days (Table 7)
[36] = Feces 3, sugar 100 mmol/L + phenylboronic acid 15 mmol/L, 7 days
[37] = Feces 3, sugar 100 mmol/L + phenylboronic acid 15 mmol/L, 7 days (Table 7)
[38] = Feces 3, sugar 100 mmol/L + phenylboronic acid 15 mmol/L, 14 days
[39] = Feces 3, sugar 100 mmol/L + phenylboronic acid 15 mmol/L, 14 days (Table 7)
[40] = Feces 3, sugar 100 mmol/L + phenylboronic acid 50 mmol/L, 0 days
[41] = Feces 3, sugar 100 mmol/L + phenylboronic acid 50 mmol/L, 7 days
[42] = Feces 3, sugar 100 mmol/L + phenylboronic acid 50 mmol/L, 14 days
[43] = Feces 3, sugar 100 mmol/L, no phenylboronic acid, 0 days
[44] = Feces 3, sugar 100 mmol/L, no phenylboronic acid, 7 days
[45] = Feces 3, sugar 100 mmol/L, no phenylboronic acid, 14 days
[46] = No feces, sugar 50 mmol/L + phenylboronic acid 15 mmol/L, 0 days
[47] = No feces, sugar 50 mmol/L + phenylboronic acid 15 mmol/L, 7 days
[48] = No feces, sugar 50 mmol/L + phenylboronic acid 15 mmol/L, 14 days
[49] = No feces, sugar 100 mmol/L + phenylboronic acid 15 mmol/L, 0 days
[50] = No feces, sugar 100 mmol/L + phenylboronic acid 15 mmol/L, 0 days (Table 7)
[51] = No feces, sugar 100 mmol/L + phenylboronic acid 15 mmol/L, 7 days
[52] = No feces, sugar 100 mmol/L + phenylboronic acid 15 mmol/L, 7 days (Table 7)
[53] = No feces, sugar 100 mmol/L + phenylboronic acid 15 mmol/L, 14 days
[54] = No feces, sugar 100 mmol/L + phenylboronic acid 15 mmol/L, 14 days (Table 7)
[55] = No feces, sugar 100 mmol/L + phenylboronic acid 50 mmol/L, 0 days
[56] = No feces, sugar 100 mmol/L + phenylboronic acid 50 mmol/L, 7 days
[57] = No feces, sugar 100 mmol/L + phenylboronic acid 50 mmol/L, 14 days
[58] = No feces, sugar 100 mmol/L, no phenylboronic acid, 0 days
[59] = No feces, sugar 100 mmol/L, no phenylboronic acid, 7 days
[60] = No feces, sugar 100 mmol/L, no phenylboronic acid, 14 days

`OC[C@@H](O)[C@@H](O)[C@H](O)[C@H](O)CO` [Mannitol, mannitol] was tested, and the Hb concentration [1] was 288 µg/L, the “Recovery ratio with respect to Hb concentration after 0 days” value [1] was 100% and the Hb concentration [2] was 278 µg/L. The “Recovery ratio with respect to Hb concentration after 0 days” value [2] was 96%, the Hb concentration [3] was 270 µg/L and the “Recovery ratio with respect to Hb concentration after 0 days” value [3] was 94%. For the same molecule, the Hb concentration [4] was 281 µg/L, the “Recovery ratio with respect to Hb concentration after 0 days” value [4] was 100% and the Hb concentration [5] was 301 µg/L. The “Recovery ratio with respect to Hb after 0 days” value [5] was 100%, the Hb concentration [6] was 279 µg/L and the “Recovery ratio with respect to Hb concentration after 0 days” value [6] was 99%. For the same molecule, the Hb concentration [7] was 288 µg/L, the “Recovery ratio with respect to Hb after 0 days” value [7] was 96% and the Hb concentration [8] was 276 µg/L. For the same molecule, the “Recovery ratio with respect to Hb concentration after 0 days” value [8] was 98%, the Hb concentration [9] was 287 µg/L and the “Recovery ratio with respect to Hb after 0 days” value [9] was 95%. The Hb concentration [10] was 270 µg/L, the “Recovery ratio with respect to Hb after 0 days” value [10] was 100% and the Hb concentration [11] was 257 µg/L. For the same molecule, the “Recovery ratio with respect to Hb after 0 days” value [11] was 95%, the Hb concentration [12] was 255 µg/L and the “Recovery ratio with respect to Hb after 0 days” value [12] was 95%. The Hb concentration [13] was 276 µg/L, the “Recovery ratio with respect to Hb concentration after 0 days” value [13] was 100% and the Hb concentration [14] was 156 µg/L. The “Recovery ratio with respect to Hb concentration after 0 days” value [14] was 57%, the Hb concentration [15] was 130 µg/L and the “Recovery ratio with respect to Hb concentration after 0 days” value [15] was 47%. The Hb concentration [16] was 296 µg/L, the “Recovery ratio with respect to Hb concentration after 0 days” value [16] was 100% and the Hb concentration [17] was 291 µg/L. For the same molecule, the “Recovery ratio with respect to Hb concentration after 0 days” value [17] was 98%, the Hb concentration [18] was 280 µg/L and the “Recovery ratio with respect to Hb concentration after 0 days” value [18] was 95%. The Hb concentration [19] was 290 µg/L, the “Recovery ratio with respect to Hb concentration after 0 days” value [19] was 100% and the Hb concentration [20] was 298 µg/L. The “Recovery ratio with respect to Hb after 0 days” value [20] was 100%, the Hb concentration [21] was 290 µg/L and the “Recovery ratio with respect to Hb concentration after 0 days” value [21] was 100%. The Hb concentration [22] was 284 µg/L, the “Recovery ratio with respect to Hb after 0 days” value [22] was 95% and the Hb concentration [23] was 286 µg/L. The “Recovery ratio with respect to Hb concentration after 0 days” value [23] was 99%, the Hb concentration [24] was 284 µg/L and the “Recovery ratio with respect to Hb after 0 days” value [24] was 95%. For the same molecule, the Hb concentration [25] was 268 µg/L, the “Recovery ratio with respect to Hb after 0 days” value [25] was 100% and the Hb concentration [26] was 263 µg/L. The “Recovery ratio with respect to Hb after 0 days” value [26] was 98%, the Hb concentration [27] was 274 µg/L and the “Recovery ratio with respect to Hb after 0 days” value [27] was 102%. The Hb concentration [28] was 284 µg/L, the “Recovery ratio with respect to Hb concentration after 0 days” value [28] was 100% and the Hb concentration [29] was 97 µg/L. The “Recovery ratio with respect to Hb concentration after 0 days” value [29] was 34%, the Hb concentration [30] was 81 µg/L and the “Recovery ratio with respect to Hb concentration after 0 days” value [30] was 28%. The Hb concentration [31] was 293 µg/L, the “Recovery ratio with respect to Hb concentration after 0 days” value [31] was 100% and the Hb concentration [32] was 247 µg/L. The “Recovery ratio with respect to Hb concentration after 0 days” value [32] was 84%, the Hb concentration [33] was 238 µg/L and the “Recovery ratio with respect to Hb concentration after 0 days” value [33] was 81%. For the same molecule, the Hb concentration [34] was 286 µg/L, the “Recovery ratio with respect to Hb concentration after 0 days” value [34] was 100% and the Hb concentration [35] was 288 µg/L. For the same molecule, the “Recovery ratio with respect to Hb after 0 days” value [35] was 100%, the Hb concentration [36] was 243 µg/L and the “Recovery ratio with respect to Hb concentration after 0 days” value [36] was 85%. For the same molecule, the Hb concentration [37] was 231 µg/L, the “Recovery ratio with respect to Hb after 0 days” value [37] was 80% and the Hb concentration [38] was 240 µg/L. The “Recovery ratio with respect to Hb concentration after 0 days” value [38] was 84%, the Hb concentration [39] was 220 µg/L and the “Recovery ratio with respect to Hb after 0 days” value [39] was 76%. The Hb concentration [40] was 254 µg/L, the “Recovery ratio with respect to Hb after 0 days” value [40] was 100% and the Hb concentration [41] was 233 µg/L. The “Recovery ratio with respect to Hb after 0 days” value [41] was 92%, the Hb concentration [42] was 226 µg/L and the “Recovery ratio with respect to Hb after 0 days” value [42] was 89%. For the same molecule, the Hb concentration [43] was 282 µg/L, the “Recovery ratio with respect to Hb concentration after 0 days” value [43] was 100% and the Hb concentration [44] was 93 µg/L. For the same molecule, the “Recovery ratio with respect to Hb concentration after 0 days” value [44] was 33%, the Hb concentration [45] was 78 µg/L and the “Recovery ratio with respect to Hb concentration after 0 days” value [45] was 28%. For the same molecule, the Hb concentration [46] was 270 µg/L, the “Recovery ratio with respect to Hb concentration after 0 days” value [46] was 100% and the Hb concentration [47] was 263 µg/L. The “Recovery ratio with respect to Hb concentration after 0 days” value [47] was 98%, the Hb concentration [48] was 254 µg/L and the “Recovery ratio with respect to Hb concentration after 0 days” value [48] was 94%. For the same molecule, the Hb concentration [49] was 269 µg/L, the “Recovery ratio with respect to Hb concentration after 0 days” value [49] was 100% and the Hb concentration [50] was 287 µg/L. The “Recovery ratio with respect to Hb after 0 days” value [50] was 100%, the Hb concentration [51] was 260 µg/L and the “Recovery ratio with respect to Hb concentration after 0 days” value [51] was 97%. The Hb concentration [52] was 272 µg/L, the “Recovery ratio with respect to Hb after 0 days” value [52] was 95% and the Hb concentration [53] was 252 µg/L. For the same molecule, the “Recovery ratio with respect to Hb concentration after 0 days” value [53] was 94%, the Hb concentration [54] was 269 µg/L and the “Recovery ratio with respect to Hb after 0 days” value [54] was 94%. The Hb concentration [55] was 254 µg/L, the “Recovery ratio with respect to Hb after 0 days” value [55] was 100% and the Hb concentration [56] was 242 µg/L. For the same molecule, the “Recovery ratio with respect to Hb after 0 days” value [56] was 95%, the Hb concentration [57] was 241 µg/L and the “Recovery ratio with respect to Hb after 0 days” value [57] was 95%. The Hb concentration [58] was 261 µg/L, the “Recovery ratio with respect to Hb concentration after 0 days” value [58] was 100% and the Hb concentration [59] was 251 µg/L. The “Recovery ratio with respect to Hb concentration after 0 days” value [59] was 96%, the Hb concentration [60] was 244 µg/L and the “Recovery ratio with respect to Hb concentration after 0 days” value [60] was 93%. The “recovery ratio of hemoglobin in the sample” value (sugar 100 mmol/L further added to other arylboronic acids (3-CPBA, 3-HPBA, 3-APBA) 15 mmol/L) was “further improved” and the “recovery ratio of hemoglobin in the sample” value (sugar 50 or 100 mmol/L further added to phenylboronic acid 15 mmol/L) was “remarkably improved”.
